Legend:
[1] = system: cultured rat astrocytes; test: Living-cell staining and morphology with calcein-AM after H2O2; type: cell-based; settings: ODN 0.1 nM pretreatment 10 min, then 1 h 300 µM H2O2; calcein-AM staining
Experimental: (§1) Secondary cultures of rat cortical astrocytes were prepared as previously described [64]with minor modifications. Briefly, cerebral hemispheres from newborn Wistar rats were collected in DMEM/F12 (2∶1; v/v) culture medium supplemented with 2 mM L-glutamine, 1‰ insulin, 5 mM HEPES, 0.4% glucose and 1% of the antibiotic-antimycotic solution. The tissues were dissociated mechanically with a syringe equipped with a 1-mm gauge needle, and filtered through a 100-µm sieve (Falcon, Franklin Lakes, NJ, USA). Dissociated cells were resuspended in culture medium supplemented with 10% FBS, plated in 175-cm^2 flasks (Greiner Bio-one GmbH, Frickenhausen, Germany) and incubated at 37°C in a 5% CO2/[…] atmosphere. When cultures were confluent, astrocytes were isolated by shaking overnight the flasks on an orbital agitator. Adhesive cells were detached by trypsination and preplated for 5 min to discard contaminating microglial cells. […]
Cultured cells were incubated at 37°C with fresh serum-free culture medium in the absence or presence of H2O2 and/or ODN for 1 h. Cells were then incubated for 10 min at 37°C with 0.3 µg/ml calcein-AM (producing green fluorescence in living cells), rinsed twice with culture medium without probe and examined on an inverted microscope (Leica, Heidelberg, Germany) equipped with a double pass filter.

[2] = system: cAMP formation in astroglial cells (adenylyl cyclase); test: cAMP production, radioimmunoassay; type: cell-based, rat; settings: ODN 10 pM; 0.1 mM IBMX, 10 min incubation; p<0.001
Experimental: as §1, with “cells. Then, the non-adhering astrocytes were harvested and plated on 35-mm hydrophilic surface Petri dishes at a density of 3×10^5 cells/ml.” for “cells.”
Cultured cells were pre-incubated for 30 min in serum-free medium containing 0.1 mM IBMX to inhibit phosphodiesterases, and then incubated in the same solution, in the presence or absence of test substances. […] The concentration of cAMP was measured by using a cAMP RIA kit. […]

[3] = system: ERK1 and ERK2; test: ERK phosphorylation, Western blot; type: cell-based, rat
Experimental: (§2) Secondary cultures of rat cortical astrocytes were prepared as previously described [64]with minor modifications. Briefly, cerebral hemispheres from newborn Wistar rats were collected in DMEM/F12 (2∶1; v/v) culture medium supplemented with 2 mM L-glutamine, 1‰ insulin, 5 mM HEPES, 0.4% glucose and 1% of the antibiotic-antimycotic solution. The tissues were dissociated mechanically with a syringe equipped with a 1-mm gauge needle, and filtered through a 100-µm sieve (Falcon, Franklin Lakes, NJ, USA). Dissociated cells were resuspended in culture medium supplemented with 10% FBS, plated in 175-cm^2 flasks (Greiner Bio-one GmbH, Frickenhausen, Germany) and incubated at 37°C in a 5% CO2/[…] atmosphere. When cultures were confluent, astrocytes were isolated by shaking overnight the flasks on an orbital agitator. Adhesive cells were detached by trypsination and preplated for 5 min to discard contaminating microglial cells. Then, the non-adhering astrocytes were harvested and plated on 35-mm hydrophilic surface Petri dishes at a density of 3×10^5 cells/ml. For measurement of cell survival, caspase-3 activity and mitochondrial activity, cells were plated in hydrophilic surface 24-well plates at a density of 8×10^4 cells/ml. The cells were incubated at 37°C in a humid atmosphere (5% CO2). After 5 days (DIV5), more than 99% of the cells were labeled with antibodies against glial fibrillary acidic protein [65]. All experiments were performed on 5- to 7-day-old secondary cultures.
Cultured cells were incubated at 37°C for 1 h with fresh serum-free medium in the absence or presence of test substances. Total proteins were extracted with lysis buffer containing 1% Triton X-100, 50 mM Tris/HCl and 10 mM EDTA. After centrifugation (20,000 g, 4°C, 15 min), the proteins contained in the supernatant were precipitated by addition of ice-cold 10% TCA. The extract was centrifuged (15,000 g, 4°C, 15 min) and washed three times with alcohol/ether. The pellet was denatured (100°C, 5 min) in 50 mM Tris/HCl (pH 7.5) containing 20% glycerol, 0.7 M 2-mercaptoethanol, 0.004% bromophenol blue and 3% SDS, and then migrated on a 10% SDS-polyacrylamide gel electrophoresis (PAGE). After separation, proteins were electrically transferred onto nitrocellulose membrane (Amersham, Les Ulis, France). […] Signal was quantified using an image analysis system (Biocom, Les Ulis, France).

[4] = system: mitochondria of cultured astrocytes; test: Mitochondrial membrane potential, JC-1 probe; type: cell-based, rat; settings: ODN 0.1 nM, 10 min pretreatment, then 1 h 300 µM H2O2
Experimental: as §1, with “cells. Then, the non-adhering astrocytes were harvested and plated on 35-mm hydrophilic surface Petri dishes at a density of 3×10^5 cells/ml.” for “cells.”
Cells seeded into 24-well plates were subjected to various treatments, incubated in the presence of the JC-1 probe (3 µl/ml) at 37°C for 15 min and then washed twice with PBS. Mitochondrial integrity was assessed with the JC-1 probe. […]

[5] = system: glutathione (GSH) in cultured astrocytes; test: Intracellular glutathione content, mBCl fluorescence; type: cell-based, rat
Experimental: as §2
Reduced GSH was measured by using the thiol-reactive probe mBCl. At the end of the treatment period, the culture medium was removed and the cells were incubated with the mBCl probe (40 µM) at 37°C for 30 min and then washed twice with PBS. Fluorescence intensity was measured with excitation at 360 nm and emission at 485 nm, using a microplate reader (Bio-Tek FLx 800).

[6] = system: cultured rat astrocytes; settings: ODN 0.1 nM, 300 µM H2O2; cited from earlier work
Experimental: In order to determine the receptor involved in the protective effect of ODN, we have first examined the dose- and the time-course effect of the peptide on detrimental action of H2O2. The protective action of ODN was concentration-dependent for doses ranging from 1 fM to 0.1 nM (Figure 1A). […] The protectiv ...

[7] = system: caspase-3; set-up: method as in PMID 21599667; settings: subnanomolar concentrations of ODN, cultured astrocytes; cited from earlier work

## ODN: octadecaneuropeptide, endozepine derived from diazepam-binding inhibitor; endogenous ligand of central-type benzodiazepine and metabotropic receptors; synthesized by Fmoc procedure (QATVGDVNTDRPGLLDLK; Octadecaneuropeptide; UniProt P11030 34-51, looked up)
[1]
  effect on H2O2-induced morphological changes and loss of calcein labeling: totally prevented the deleterious effects of H2O2
[2]
  maximum stimulation of cAMP formation: 179 % over control
[3]; ODN 0.1 nM, after 60 min of treatment, percentages of control
  ERK phosphorylation: 206%
[3]; ODN 0.1 nM, time-course
  time to detectable increase of ERK phosphorylation: ≤ 20 min
[3]; graded ODN 1 fM to 0.1 nM, 1 h, Western blot
  effect on ERK phosphorylation: concentration-related stimulation of ERK phosphorylation
[4]
  effect on H2O2-induced alteration of the mitochondrial membrane potential: suppressed this deleterious effect of H2O2 on the mitochondrial membrane potential
[5]; ODN 0.1 nM pretreatment, 1 h 300 µM H2O2
  effect on H2O2-induced depletion of GSH (mBCl fluorescence): prevented the depletion of mBCl fluorescence induced by H2O2
[5]; graded ODN 1 fM to 0.1 nM, 1 h
  effect on intracellular GSH content (mBCl fluorescence), peptide alone: dose-related increase in mBCl fluorescence intensity
[6]
  effect on H2O2-induced astrocyte cell death: able to reverse the effect of 300 µM H2O2-induced astrocyte cell death
[7]
  effect on H2O2-induced caspase-3 activation: inhibit H2O2-induced caspase-3 activation
